Reference: patent publication US6844343B1, “N-substituted 4-aminopteridines, synthesis and use thereof as pharmaceutical agent” (Vasopharm Biotech GmbH, priority 1999, dated 2005)

Columns and labels:
[1] = test system: purified NO synthase from pig cerebellum or from pig liver; test: Activity assay of purified NOS (3H-L-arginine to 3H-L-citrulline conversion); assay type: biochemical; details: substance 100 μM, in the presence of 2 μM tetrahydrobiopterin, 15 min at 37° C.
Protocol: The inhibition of the activity of purified nitric oxide synthase (NOS) by compounds of the general formula I can be determined as follows.
In this activity assay the L-citrulline which is a coproduct of the formation of NO by purified NOS is quantitatively measured. ^3H-radiolabeled L-arginine is employed as substrate of the enzyme reaction and is converted into ^3H-L-citrulline and NO. After completion of the enzyme incubation, generated L-citrulline is removed from unused L-arginine by ion exchange chromatography from the reaction mixture; the ^3H activity measured by liquid scintillation then is corresponds to the amount of L-citrulline, which is a direct measure of the activity of NOS.
The basic medium for carrying out the enzyme reaction is TE buffer (triethanolamine, EDTA, pH 7.0).
The final volume of each incubation is 100 μl. The reaction mixture is obtained by mixing the following 6 components on ice: • 1. “REA-Mix” (pH 7.0) which contains triethanolamine, calcium chloride, magnesium chloride, EDTA, L-arginine, calmodulin and flavin adenine dinucleotide (FAD); • 2. freshly prepared stock solution of β-nicotinamide adenine dinucleotide phosphate, reduced form (NADPH); • 3. (6R)-5,6,7,8-tetrahydro-L-biopterin dihydro-chloride stock solution (BH4) or —for experiments without BH4-instead TE buffer; • 4. purified NO synthase from pig cerebellum or from pig liver; • 5.
After mixing of the components on ice, the reaction mixture was immediately incubated in a water bath at 37° C. for 15 minutes. […] After this incubation time, the reaction was stopped by addition of 900 μl of ice-cold “stop buffer” (20 mM sodium acetate, 2 mM EDTA, pH 5.5), and the mixture (total volume now 1.0 ml) was placed on ice. To remove the unreacted ^3H-L-arginine, the mixture was loaded onto an ion exchange column with 0.8 ml of Dowex AG 50 WX-8 (100-200 mesh) which has previously been washed and equilibrated with 2 ml of stop buffer. After loading of the sample, the column was eluted twice with 1 ml of water each time. The flow-through of the sample and the eluate were collected in scintillation vessels and […] (total volume 3 ml). 9 ml of scintillator solution were added to the 3 ml of aqueous measurement solution, and the homogeneous mixture was measured in a Tricarb 2500 TR (Packard) liquid scintillation counter for 1 minute for each sample. […] Each substance was tested for an antagonistic effect in a concentration of 100 μM in the presence of 2 μM tetrahydrobiopterin, and for an agonistic effect on NOS in the absence of tetrahydrobiopterin.
All incubations were carried out on triplicates. Each experiment was repeated three times with different enzyme preparations.

[2] = test system: NO synthase; details: literature reports on BH4 analogues; cited from earlier work

## 2-amino-4-(4-methylpiperazin-1-yl)-6-(4-chloro-phenyl)pteridine hemihydrate [Example 36]
[1]
  Remaining activity (% of Vmax): 64 ± 9 % of Vmax

## 2-amino-4-(4-methylpiperazin-1-yl)-6-(4-methoxy-phenyl)pteridine hemihydrate [Example 37]
[1]
  Remaining activity (% of Vmax): 84 ± 5 % of Vmax

## 2-amino-4-(4-methylpiperazin-1-yl)-6-phenyl-pteridine hemihydrate [Example 35]
[1]
  Remaining activity (% of Vmax): 83 ± 1 % of Vmax

## 2-amino-4-(morpholin-4-yl)-6-(4-methoxyphenyl)-5,6,7,8-tetrahydropteridine hydrochloride hemi-hydrate [Example 40]
[1]
  Remaining activity (% of Vmax): 66 ± 14 % of Vmax

## 2-amino-4-(morpholin-4-yl)-6-phenyl-5,6,7,8-tetra-hydropteridine dihydrochloride hemihydrate [Example 42]
[1]
  Remaining activity (% of Vmax): 51 ± 3 % of Vmax

## CC1CNc2nc(N)[nH]c(=O)c2C1 (stereo not shown) [5-deaza-6-methyl-5,6,7,8-tetrahydropterin]
[2]
  effect on NO production / NO synthase: weak inhibition

## CC1Nc2nc(N)[nH]c(=O)c2NC1C (stereo not shown) [6,7-dimethyl-5,6,7,8-tetrahydropterin]
[2]
  effect on NO production / NO synthase: no significant effects

## CC1CNc2nc(N)[nH]c(=O)c2N1 (stereo not shown) [6-methyl-5,6,7,8-tetrahydropterin]
[2]
  effect on NO production / NO synthase: able to partly replace the natural cofactor

## CC(O)C(O)C1CNc2c(nc(N)[nH]c2=O)N1 (stereo not shown) [7-R/S-BH4]
[2]
  effect on NO production / NO synthase: able to partly replace the natural cofactor

## C[C@@H](O)[C@@H](O)[C@H]1CNc2nc(N)[nH]c(=O)c2N1 [Example 6S-BH4, 6S-BH4]
[2]
  effect on NO production / NO synthase: able to partly replace the natural cofactor

## CN(C)c1nc(N)nc2ncc(-c3ccccc3)nc12 [Example 11, 2-amino-4-(dimethylamino)-6-phenylpteridine]
[1]
  Remaining activity (% of Vmax): 92 ± 11 % of Vmax

## Cc1ccc(-c2cnc3nc(N)nc(N(C)C)c3n2)cc1 [Example 12, 2-amino-4-(dimethylamino)-6-(4-methylphenyl)-pteridine]
[1]
  Remaining activity (% of Vmax): 15 ± 7 % of Vmax

## COc1ccc(-c2cnc3nc(N)nc(N(C)C)c3n2)cc1 [Example 13, 2-amino-4-(dimethylamino)-6-(4-methoxyphenyl)-pteridine]
[1]
  Remaining activity (% of Vmax): 13 ± 4 % of Vmax

## CCN(CC)c1nc(N)nc2ncc(-c3ccccc3)nc12.O [Example 15, 2-amino-4-(diethylamino)-6-phenylpteridine hydrate]
[1]
  Remaining activity (% of Vmax): 75 ± 3 % of Vmax

## CCN(CC)c1nc(N)nc2ncc(-c3ccc(Cl)cc3)nc12.O.O [Example 16, 2-amino-4-(diethylamino)-6-(4-chlorophenyl)-pteridine dihydrate]
[1]
  Remaining activity (% of Vmax): 42 ± 10 % of Vmax

## CCN(CC)c1nc(N)nc2ncc(-c3ccc(OC)cc3)nc12.O [Example 17, 2-amino-4-(diethylamino)-6-(4-methoxyphenyl)-pteridine hydrate]
[1]
  Remaining activity (% of Vmax): 2 ± 0.1 % of Vmax

## CCN(CC)c1nc(N)nc2ncc(-c3ccc(OC)c(OC)c3)nc12.O [Example 18, 2-amino-4-(diethylamino)-6-(3,4-dimethoxyphenyl)-pteridine hydrate]
[1]
  Remaining activity (% of Vmax): 23 ± 4 % of Vmax

## Nc1nc(N(Cc2ccccc2)Cc2ccccc2)c2nc(-c3ccccc3)cnc2n1.O.O [Example 19, 2-amino-4-(dibenzylamino)-6-phenylpteridine dihydrate]
[1]
  Remaining activity (% of Vmax): 0 ± 0.05 % of Vmax

## CCCN(CCC)c1nc(N)nc2ncc(-c3ccccc3)nc12.O.O.O [Example 23, 2-amino-4-(di-n-propylamino)-6-phenylpteridine trihydrate]
[1]
  Remaining activity (% of Vmax): 77 ± 16 % of Vmax

## CCCN(CCC)c1nc(N)nc2ncc(-c3ccc(Cl)cc3)nc12.O.O.O [Example 24, 2-amino-4-(di-n-propylamino)-6-(4-chlorophenyl)-pteridine trihydrate]
[1]
  Remaining activity (% of Vmax): 7 ± 4 % of Vmax

## CCCN(CCC)c1nc(N)nc2ncc(-c3ccc(OC)cc3)nc12.O [Example 25, 2-amino-4-(di-n-propylamino)-6-(4-methoxyphenyl)-pteridine hydrate]
[1]
  Remaining activity (% of Vmax): 25 ± 12 % of Vmax

## CCCN(CCC)c1nc(N)nc2ncc(-c3ccc(OC)c(OC)c3)nc12.O [Example 26, 2-amino-4-(di-n-propylamino)-6-(3,4-dimethoxy-phenyl)pteridine hydrate]
[1]
  Remaining activity (% of Vmax): 0 % of Vmax

## Nc1nc(N2CCOCC2)c2nc(-c3ccccc3)cnc2n1.O [Example 27, 2-amino-4-(morpholin-4-yl)-6-phenylpteridine hydrate]
[1]
  Remaining activity (% of Vmax): 41 ± 8 % of Vmax

## Cl.Nc1nc(N2CCOCC2)c2nc(-c3ccc(Cl)cc3)cnc2n1.O [Example 28, 2-amino-4-(morpholin-4-yl)-6-(4-chlorophenyl)-pteridine hydrochloride hydrate]
[1]
  Remaining activity (% of Vmax): 3 ± 1.5 % of Vmax

## COc1ccc(-c2cnc3nc(N)nc(N4CCOCC4)c3n2)cc1OC.O.O.O [Example 30, 2-amino-4-(morpholin-4-yl)-6-(3,4-dimethoxy-phenyl)pteridine trihydrate]
[1]
  Remaining activity (% of Vmax): 5 ± 3 % of Vmax

## Nc1nc(N2CCCCC2)c2nc(-c3ccccc3)cnc2n1.O.O [Example 31, 2-amino-4-(piperidin-1-yl)-6-phenylpteridine dihydrate]
[1]
  Remaining activity (% of Vmax): 0 ± 0.05 % of Vmax

## Nc1nc(N2CCCCC2)c2nc(-c3ccc(Cl)cc3)cnc2n1.O.O [Example 32, 2-amino-4-(piperidin-1-yl)-6-(4-chlorophenyl)-pteridine dihydrate]
[1]
  Remaining activity (% of Vmax): 3 ± 1 % of Vmax

## COc1ccc(-c2cnc3nc(N)nc(N4CCN(C)CC4)c3n2)cc1OC.O.O [Example 38, 2-amino-4-(4-methylpiperazin-1-yl)-6-(3,4-di-methoxyphenyl)pteridine dihydrate]
[1]
  Remaining activity (% of Vmax): 99 ± 16 % of Vmax

## COc1ccc(-c2cnc3nc(N)nc(N4CCCC4)c3n2)cc1.O.O [Example 39, 2-amino-4-(pyrrolidin-1-yl)-6-(4-methoxyphenyl)-pteridine dihydrate]
[1]
  Remaining activity (% of Vmax): 30 ± 5 % of Vmax

## COc1ccc(C2CNc3nc(N)nc(N4CCOCC4)c3N2)cc1OC.Cl.O (stereo not shown) [Example 41, 2-amino-4-(morpholin-4-yl)-6-(3,4-dimethoxy-phenyl)-5,6,7,8-tetrahydropteridine hydrochloride hydrate]
[1]
  Remaining activity (% of Vmax): 68 ± 11 % of Vmax

## Cl.Cl.Cl.Nc1nc2c(c(N3CCCCC3)n1)NC(c1ccc(Cl)cc1)CN2.O (stereo not shown) [Example 43, 2-amino-4-(piperidin-1-yl)-6-(4-chlorophenyl)-5,6,7,8-tetrahydropteridine trihydrochloride hydrate]
[1]
  Remaining activity (% of Vmax): 0 % of Vmax

## C[C@H](O)[C@H](O)C1=Nc2c(nc(N)[nH]c2=O)NC1 [dihydrobiopterin]
[2]
  effect on NO production / NO synthase: able to partly replace the natural cofactor

## Nc1nc2c(c(=O)[nH]1)N=C(CNc1ccc(C(=O)N[C@@H](CCC(=O)O)C(=O)O)cc1)CN2 [dihydrofolic acid]
[2]
  effect on NO production / NO synthase: no significant effects

## Nc1nc2c(c(=O)[nH]1)N=C([C@H](O)[C@H](O)CO)CN2 [dihydroneopterin]
[2]
  effect on NO production / NO synthase: no significant effects

## Nc1nc2ncc(CNc3ccc(C(=O)N[C@@H](CCC(=O)O)C(=O)O)cc3)nc2c(=O)[nH]1 [folic acid]
[2]
  effect on NO production / NO synthase: no significant effects

## Nc1nc2[nH]c(=O)cnc2c(=O)[nH]1 [isoxanthopterin]
[2]
  effect on NO production / NO synthase: no significant effects

## CN(Cc1cnc2nc(N)nc(N)c2n1)c1ccc(C(=O)N[C@@H](CCC(=O)O)C(=O)O)cc1 [methotrexate]
[2]
  effect on NO production / NO synthase: no significant effects

## Nc1nc2ncc([C@H](O)[C@H](O)CO)nc2c(=O)[nH]1 [neopterin]
[2]
  effect on NO production / NO synthase: no significant effects

## Nc1nc2nccnc2c(=O)[nH]1 [pterin]
[2]
  effect on NO production / NO synthase: no significant effects

## Nc1nc2c(c(=O)[nH]1)NC(C(O)C(O)CO)CN2 (stereo not shown) [tetrahydro-neopterin]
[2]
  effect on NO production / NO synthase: no significant effects

## Nc1nc2c(c(=O)[nH]1)NC(CNc1ccc(C(=O)N[C@@H](CCC(=O)O)C(=O)O)cc1)CN2 (stereo partly shown) [tetrahydrofolic acid]
[2]
  effect on NO production / NO synthase: no significant effects

## Nc1nc(=O)c2[nH]c(=O)cnc2[nH]1 [xanthopterin]
[2]
  effect on NO production / NO synthase: no significant effects

## Biopterin
[2]
  effect on NO production / NO synthase: no significant effects
